{"source": "patent US20160060322A1", "about": "“RELAXIN-LIKE PEPTIDES AND USES THEREOF” (ANGION BIOMEDICA CORP., priority 2012, published 2016)", "tested_on": "HEK-293T cells", "experiment": "cAMP production in parental HEK-293T cells lacking RXFP1", "assay_type": "cell-based", "settings": "parental HEK-293T cells (lack RXFP1); H2R 10 ng/mL"}
{"substance": "H2R: ~6 kd peptide hormone, 24 amino acid A chain (SEQ ID NO:5) and 29 amino acid B chain (SEQ ID NO:6) linked by disulfide bridges (chain 1 ZLYSALANKCCHVGCTKRSLARFC; chain 2 DSWMEEVIKLCGRELVRAQIAICGMSTWS; disulfide bridges; listed as Homo sapiens)", "values": [{"measurement": "cAMP response in parental cells", "result": "no cAMP response"}]}
